From PubChem BioAssay (NCI)
Values joined by “and” are separate entries in the source; they are usually repeats but may differ in a detail not shown here. Equal entries are not always repeated.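 Five concentrations, 48 hours, 96-well plates. Here, GI50 denotes the concentration required for 50% inhibition of growth. Definition used: TGI = concentration required for complete inhibition of growth.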

Columns and labels:
Test in all cases: NCI anticancer screen, dose series, 48 h
[1] = tested on: M19-MEL melanoma
[2] = tested on: MDA-MB-231 breast
[3] = tested on: MCF7 breast
[4] = tested on: DMS 114 small cell lung
[5] = tested on: DMS 273 small cell lung
[6] = tested on: BT-549 breast
[7] = tested on: PC-3 prostate
[8] = tested on: UACC-62 melanoma
[9] = tested on: OVCAR-3 ovarian
[10] = tested on: RXF-631 renal
[11] = tested on: LOX IMVI melanoma
[12] = tested on: MOLT-4 leukemia
[13] = tested on: KM20L2 colon

O=C1/C(=C/c2ccc(Cl)c(Cl)c2)CN(C(=O)CCN2CCOCC2)C/C1=C\c1ccc(Cl)c(Cl)c1
GI50 [1]: 1090 nM
TGI [1]: 3000 nM and 2400 nM
TGI [2]: 5.91 nM
TGI [3]: 159 nM
GI50 [4]: 346 nM
TGI [4]: 2340 nM and 1330 nM
GI50 [5]: 230 nM
TGI [5]: 2370 nM and 608 nM
TGI [6]: 48.7 nM
TGI [7]: 15.7 nM
GI50 [8]: 1920 nM
TGI [8]: 3270 nM and 4900 nM
GI50 [9]: 1080 nM
GI50 [10]: 1990 nM
TGI [10]: 8250 nM and 5870 nM
TGI [11]: 1150 nM
GI50 [12]: 196 nM
GI50 [13]: 1820 nM
TGI [13]: 2790 nM and 4010 nM
